Experimental data published in patent US20070043118A1, “Method of treating a subject suffering from degenerative disc disease using a nitric oxide synthase inhibitor” (Discogen, LLC, priority 2005, published 2007).

Experiments:
[1] = test system: patients with chronic intractable lower back pain and positive discography; assay: Biochemical injection treatment in human subjects (intradiscal injection; disability questionnaire and visual analogue pain scale); assay type: in vivo; conditions: intradiscal injection of 1 to 2 cc disc solution per involved disc
Description: Thirty patients with chronic intractable lower back pain and positive discography would participate in the study. These would be adult patients with chronic lower back pain who have been unresponsive or responded poorly to multiple previous methods of treatment, including physical therapy, multiple analgesics, injection therapy, laminectomies, fusions and intradiscal electrothermal annuloplasty (IDET) procedures. These patients would have positive discography at one or more lumbar levels and concordant pain provocation combined with morphologic disc abnormalities.
Using sterile techniques and United States Pharmacopeia-grade pharmaceuticals solutions containing the NOS inhibitors are prepared, specifically, one solution is prepared for each of GED, L-NAME, and L-NMMA. The “GED disc solution” consists of 0.3 mg/kg to 10 mg/kg GED by subject weight; 1.0 to 100 micromolar by concentration. The “L-NAME disc solution” consists of 1.0 mg/kg L-NAME by subject weight; 5.0 to 100 micromolar by concentration. The “L-NMMA disc solution” consists of 1.0 mg/kg L0NMA by subject weight; 5.0 to 100 micromolar by concentration. These concentrations are derived based on solubility and tolerance characteristics of the constituents. These are mixed with 33% nonionic contrast and 33% of 50% dextrose at the time of injection. A total of 1 to 2 cc of each solution is injected into each involved disc. All solutions are tested on separate patients. Injection promptly terminates if there is any leakage of contrast into the epidural space. Zygapophyseal joint injections are performed after fluroscopic confirmation of correct needle placement using intra-articular contrast and are performed at the same levels as the disc injections.
To avoid patient discomfort, the first series of injections are performed at the time of diagnostic discography. An intradiscal injection of 1 to 2 cc is used at each involved disc level. The levels are determined by discography. This is combined with injection of the zygapophyseal joints at the painful disc level(s) with the modified solution mixture as described above. […]

[2] = test system: disc tissue obtained from human subjects; conditions: in vitro; cited from earlier work

| Compound | treatment outcome: pain and disability before and after treatment (disability questionnaire 0-24, visual analogue pain scale 0-10) [1] | level of NO present in disc tissue [2] |
| --- | --- | --- |
| [H]/N=C(\NC)NCCC[C@H](N)C(=O)O [L-NMMA, N-monomethyl-L-arginine] | effective in treating the patients and providing symptomatic relief | reduce the level of NO present |
| COC(=O)[C@@H](N)CCCNC(=N)N[N+](=O)[O-] [L-NAME, nitro-L-arginine methyl ester] | effective in treating the patients and providing symptomatic relief | – |
| N=C(N)NCCSSCCNC(=N)N [GED, guanidinoethyldisulfide] | effective in treating the patients and providing symptomatic relief | – |
